The values that follow are results of earlier work, collected in publication PMC6276840, “Challenges and Opportunities of Nanotechnology as Delivery Platform for Tocotrienols in Cancer Therapy” (Frontiers in Pharmacology, 2018).

On the set-up of data set [1]: method as in Yap et al., 2003. The following applies: rats; ref Yap et al., 2003.
For a further data set, the system named is MCF-7. As to conditions: MCF-7 cells; ref Alayoubi et al., 2013.
A further data set has as its system MDA-MB-231. As to conditions: MDA-MB-231 cells; ref Alayoubi et al., 2013.
Details of data set [2]: method as in Lorusso et al., 2007; Rafiyath et al., 2012; Rom et al., 2014. The following applies: when delivered in liposomes; ref Lorusso et al., 2007; Rafiyath et al., 2012; Rom et al., 2014.

On to `CC(C)=CCC/C(C)=C/CC/C(C)=C/CC[C@]1(C)CCc2cc(O)cc(C)c2O1` [δ-tocotrienol], for which, in data set [1], the absolute oral bioavailability result is “less than 10%”.
The IC50 is the concentration at which inhibition is half-maximal. With `CCC(C)(C)C(=O)O[C@H]1C[C@@H](C)C=C2C=C[C@H](C)[C@H](CC[C@@H]3C[C@@H](O)CC(=O)O3)[C@H]21` [simvastatin], the values for the IC50 with MCF-7 and in the data set on MDA-MB-231 were 19 µM and 8 µM, respectively.
Take `CC(C)=CCC/C(C)=C/CC/C(C)=C/CC[C@]1(C)CCc2cc(O)c(C)c(C)c2O1` [γ-tocotrienol]: in data set [1], the absolute oral bioavailability entry is on record as “less than 10%”.
On to `COc1cccc2c1C(=O)c1c(O)c3c(c(O)c1C2=O)C[C@@](O)(C(=O)CO)C[C@@H]3O[C@H]1C[C@H](N)[C@H](O)[C@H](C)O1` [doxorubicin], for which, in data set [2], the cardiotoxicity result was “markedly reduced”; the “hematological toxicity and palmar–plantar erythrodysesthesia” value is given as “increased incidence”.
Turning to `CC(C)=CCC/C(C)=C/CC/C(C)=C/CC[C@]1(C)CCc2c(C)c(O)c(C)c(C)c2O1` [α-tocotrienol], the absolute oral bioavailability entry in data set [1] is “less than 30%”.
